For 2 compounds, Km results are on record in paper doi:10.1101/2022.01.13.476167v2 (biorxiv, 2022).

This assay has as its system aPGA (Achromobacter spp. penicillin G acylase). Conditions: 0.05 M phosphate buffer, pH 8.0, 35 °C.

In the case of `CCCCCC(=O)N[C@H]1CCOC1=O` [C06-HSL], the Km stood at 620 ± 100 µM.
The same measure for `CCCCCCCC(=O)N[C@H]1CCOC1=O` [C08-HSL]: 870 ± 10 µM.
